Reference: US20100278789A1, “METHODS OF GENERATING EXPANDED AND RE-DIFFERENTIATED ADULT ISLET BETA CELLS CAPABLE OF PRODUCING INSULIN” (priority 2007, published 2010)

Key:
[1] = test system: eGFP+ human islet cells; test: Insulin immunostaining of eGFP+ islet cells incubated with diazoxide after viral infection; format: cell-based; set-up: dose or concentration left out as unconfirmed; conditions: diazoxide following viral infection, days 5-6 of culture
[2] = test system: Beta cell derived labeled cells at P5; test: Insulin expression (RT-PCR) in beta cell derived labeled cells treated with gamma-secretase inhibitor; format: cell-based, human; conditions: 300 nM, 4 days, vs untreated or DMSO
Experimental: Beta cell derived labeled cells at P5 treated for 4 days with 300 nM gamma-secretase inhibitor (S,S)-2-[2-(3,5-difluorophenyl)acetylamino]-N-(5-methyl-6-oxo-6,7-dihydro-5H-dibenzo [b,d]azepin-7-yl)propionamide (DBZ). Control cells were either untreated, or treated with DMSO (solvent). Medium with compound was changed every 48 hours.
RT-PCR analyses: As described for Example 1.

[3] = test system: cultured human islet cells; test: Immunoblotting for cleaved PARP (apoptosis) in islet cells; format: cell-based
Experimental: (§1) HES1 inhibition and lineage tracing: HES1 shRNA ([…])—SEQ ID NO: 7 and a non-target shRNA, cloned in pLKO.1 lentiviral vector, were obtained from the RNAi Consortium (Sigma-Aldrich). Virus was produced in 293T cells following cotransfection with the pCMVdR8.91 and pMD2.G packaging plasmids. The culture medium was harvested 48 hours later. Islet cells cultured for 1-2 days were washed with PBS and infected at MOI 2.5:1 in CMRL 1066 medium containing 8 μg/ml polybrene overnight. The medium was then replaced with regular culture medium. Four days after infection, the cells were selected for puromycin resistance (1 μg/ml) for 3 days. Two weeks after infection the cells were harvested for further analysis. Lineage tracing was performed using the RIP-Cre and a pTrip CMV-loxP-DsRed2-loxP-eGFP viruses as described herein below. Briefly, islet cells cultured for 1-2 days were infected with a 1:1:1 mixture of the 3 viruses (shRNA+RIP-Cre+pTrip CMV-loxP-DsRed2-loxP-eGFP) at a total MOI 4:1. Selection and further analysis were carried out as above.
(§2) Immunoblotting: Total cellular protein was extracted in 0.5% NP40 containing a protease inhibitor cocktail (Roche). Protein concentration was determined by the BCA method (Pierce, Rockford, Ill.). […] Loading was monitored using goat-anti-beta-actin (Santa Cruz, 1:1000). […]

[4] = test system: sorted eGFP+ cells derived from beta cells; test: HES1 shRNA in sorted eGFP+ cells expanded 7 population doublings, qRT-PCR and morphology; format: cell-based, human
Experimental: Virus was produced in 293T cells following cotransfection with the pCMVdR8.91 and pMD2.G packaging plasmids. The culture medium was harvested 48 hours later. […] They were then infected with HES1 or nontarget shRNA viruses, and 4 days later trypsinized and shifted to serum free medium (SFM). RNA was extracted following 4 more days and analyzed by qRT-PCR.
RNA analyses: As described for Example 1.

[5] = test system: cultured human islet cells; test: Replication of cultured islet cells (BrdU incorporation, Ki67 staining) after HES1 shRNA infection; format: cell-based; conditions: 14 days after infection
Experimental: as §1
(§3) Immunofluorescence: Cells were plated in 24-well plates on sterilized coverslips and fixed in 4% paraformaldehyde. Cells were permeabilized with 0.25% NP40 for 10 minutes and blocked for 10 minutes at room temperature in 1% bovine serum albumin, 10% FBS, and 0.2% saponin. […]

[6] = test system: dedifferentiated human islet cells expanded in culture; test: Redifferentiation of dedifferentiated expanded human islet cells by HES1 shRNA (immunoblotting, RT-PCR, insulin ELISA, morphology); format: cell-based
Experimental: Human islet cells were cultured for 4-5 weeks as described for Example 1. They were then infected with lentiviruses expressing HES1 (SEQ ID NO: 7) or nontarget shRNAs. Nine days following infection the cells were analyzed as described for Example 1. Primers used for RT-PCR analysis are described in Table 1, herein above, […]

[7] = test system: HES1; test: Immunoblotting for HES1 in islet cells infected at culture initiation with HES1 shRNA virus; format: cell-based, human; conditions: islet cells infected after 1-2 days of culture, analysed 14 days after infection
Experimental: as §1, §2

[8] = test system: cultured human islet cells; test: qPCR analysis of RNA from islet cells 14 days after HES1 shRNA infection; format: cell-based; conditions: 14 days after infection
Experimental: as §1
RNA analyses: Total RNA was extracted using High Pure RNA isolation kit (Roche). cDNA was synthesized using SuperScript III (Invitrogen). qPCR was performed using a Prism 7300 ABI Real Time PCR System (Applied Biosystems). Relative quantitative analysis was performed according to the comparative CT method by using the arithmetic formula 2̂^−(ΔΔct). The cDNA levels were normalized to human ribosomal protein P0 (RPLP0) cDNA.

[9] = test system: HES1; test: Screening of 4 HES1 shRNA sequences in 293T cells, HES1 immunoblotting; format: cell-based
Experimental: Immunoblotting: Total cellular protein was extracted in 0.5% NP40 containing a protease inhibitor cocktail (Roche). Protein concentration was determined by the BCA method (Pierce, Rockford, Ill.). 70 μg protein were separated on 12% sodium dodecyl sulphate-polyacrylamide gels and electroblotted onto PDF membranes. The membranes were incubated with rabbit-anti-HES1 (1:1000) or rabbit-anti-PARP (Cell Signaling, 1:1000). Loading was monitored using goat-anti-beta-actin (Santa Cruz, 1:1000). The bound antibody was visualized with the appropriate horseradish peroxidase-conjugated anti-IgG (Jackson) and SuperSignal West Pico Chemiluminescent Substrate (Pierce). Cells treated with 1 μm staurosporine for 6 hours were used as positive control for the PARP blot.
Inhibition of HES1 expression prevents induction of beta-cell replication: To further correlate the induction of beta-cell replication with HES1 upregulation, HES1 induction during the initial weeks of culture was inhibited using shRNA. […] Isolated human islets were dissociated, and the cells were infected with a lentivirus encoding HES1 shRNA before culture under standard conditions. Selection for drug resistance allowed elimination of uninfected cells. Cells infected with a non-target shRNA lentivirus and selected under similar conditions served as control. […]

[10] = test system: cultured human islet cells; test: Insulin immunostaining of islet cells and eGFP+ cells after HES1 shRNA infection; format: cell-based
Experimental: as §1, §3

[11] = cells cultured 4-5 weeks, 9 days after infection, immunoblotting

Question: Which “fraction of eGFP+ cells that were insulin-positive” value [1] does the source give for `CC1=NS(=O)(=O)c2cc(Cl)ccc2N1` [diazoxide] here?
Answer: 84.8±5.8%

Question: Which insulin expression [2] does the source give for `C[C@H](NC(=O)Cc1cc(F)cc(F)c1)C(=O)N[C@@H]1C(=O)N(C)c2ccccc2-c2ccccc21` [gamma secretase inhibitor, (S,S)-2-[2-(3,5-difluorophenyl)acetylamino]-N-(5-methyl-6-oxo-6,7-dihydro-5H-dibenzo [b,d]azepin-7-yl)propionamide] here?
Answer: increase

Question: With `CN[C@@H]1C[C@H]2O[C@@](C)([C@@H]1OC)n1c3ccccc3c3c4c(c5c6ccccc6n2c5c31)C(=O)NC4` [staurosporin, staurosporine, reference compound] as the molecule, how does the “PARP cleavage, immunoblotting (positive control)” value ([3]; uninfected cells, 1 μm staurosporine for 6 hours) read?
Answer: cleaved PARP

Question: For “TGGCCAGTTTGCTTTCCTCAT (chemistry not given here) [HES1 shRNA, HES1 shRNA cloned in pLKO.1 lentiviral vector, obtained from the RNAi Consortium (Sigma-Aldrich)]”, which “upregulation of transcripts encoding insulin, PDX1, NEUROD1, IAPP, and PC1” value ([4]; eGFP+ vs eGFP− cells, qRT-PCR) is on record?
Answer: occurred preferentially in eGFP^+ cells

Question: And the “induction of beta-cell transcripts, combination of SFM with HES1 shRNA” value ([4]; shRNA infection, 4 days later shifted to SFM, RNA after 4 more days)?
Answer: pronounced additive effect

Question: What about the “morphological changes in response to HES1 shRNA, eGFP+ compared with eGFP− cells” value ([4]; sorted cells) of the same molecule?
Answer: much more pronounced in eGFP^+ cells

Question: And the “replication rate, Ki67 staining in eGFP+ cells derived from beta cells” value [5]?
Answer: lower replication rate

Question: And the “cell proliferation, staining for BrdU incorporation” value ([5]; compared with control vector)?
Answer: diminished cell proliferation

Question: What about the “insulin expression by insulin ELISA and immunostaining” value ([6]; 9 days after infection) of the same molecule?
Answer: increase

Question: And the NEUROD1 transcripts ([6]; 9 days after infection, RT-PCR)?
Answer: significant increase

Question: And the PDX1 transcripts ([6]; 9 days after infection, RT-PCR)?
Answer: significant increase

Question: And the insulin transcripts ([6]; 9 days after infection, RT-PCR)?
Answer: significant increase

Question: What about the “p57, RNA analysis” value ([6]; 9 days after infection, RT-PCR) of the same molecule?
Answer: increase

Question: And the “cellular HES1 protein levels” value [6, 11]?
Answer: decrease

Question: What about the “p57 levels (protein)” value [6, 11] of the same molecule?
Answer: increase

Question: And the morphological change ([6]; cells expressing HES1 shRNA)?
Answer: tended to form clusters

Question: What about the “cell apoptosis, immunoblotting for cleaved PARP” value ([3]; HES1 shRNA virus vs non-target virus, 14 days after infection) of the same molecule?
Answer: did not correlate with an increase in cell apoptosis

Question: What about the “HES1 protein levels, lower compared with cells infected with the control virus” value [7] of the same molecule?
Answer: up to 6 ×

Question: And the “insulin transcripts, lower compared with primary islets” value [8]?
Answer: 20 fold

Question: And the “levels of NOTCH transcripts” value [8]?
Answer: did not affect

Question: And the “levels of PDX1 and NEUROD1 transcripts relative to primary islets” value [8]?
Answer: comparable to those in primary islets

Question: What about the “insulin transcripts, higher compared with cells infected with control virus” value ([8]; p<0.01) of the same molecule?
Answer: 5.7 fold

Question: And the “p57 transcripts, higher than in cells infected with control virus” value ([8]; p<0.04)?
Answer: 5.7 fold

Question: And the “PDX1 transcript levels, higher than control virus” value ([8]; p<0.05)?
Answer: 5.6 fold

Question: What about the “NEUROD1 transcript levels, higher than control virus” value ([8]; p<5.45×10^−5) of the same molecule?
Answer: 3.7 fold

Question: And the “efficiency among 4 HES1 shRNA sequences, based on reduction in HES1 protein levels” value [9]?
Answer: most efficient

Question: What about the “fraction of insulin-positive cells among eGFP+ cells, higher” value [10] of the same molecule?
Answer: 3 fold

Question: What about the “number of insulin-positive cells, higher than control virus” value ([10]; p<0.016) of the same molecule?
Answer: 4 fold
